Where a SMILES comes first, the peptide text is derived from it.
Experiments:
A20 (TNFAIP3) = test: Quantitative RT-PCR of downstream gene A20 in UM-UC-3 cells; format: cell-based, human; conditions: UM-UC-3 cells transfected with siRNA, compared with siEGFP
Experimental: (§1) UM-UC-3 cells were transfected with siRNA against DEPDC1 (si-DEPDC1), ZNF224 (si-ZNF224-2) or EGFP (control siRNA). The target sequences of the synthetic oligo-duplex for siRNA against DEPDC1 (Sigma Aldrich) were as follows: si-DEPDC1,5′-CCAAAGUUCCGUAGUCUAA-3′(SEQ ID NO: 75), ZNF224 (si-ZNF224-2) or EGFP as described in “RNA interference assay” section.
Total RNAs were extracted from each sample at 12 hours and 24 hours after the transfection, labeled with Cy5 (for si-DEPDC1- and si-ZNF224-2-transfected cells) or Cy3 (for si-EGFP-transfected cells), and subjected to cohybridization onto cDNA microarrayslides containing 36468 cDNA or ESTs as described previously (Takata R, et al., Clin Cancer Res 2005 11:2625-36). […] For other genes, the Cy5/Cy3 ratio was calculated using the raw data of each samples. […] Validation of candidate downstream genes of both DEPDC1 and ZNF224 was carried out with quantitative RT-PCR analysis using the SYBR green dye (Rhoche) and the same amplified RNAs from UM-UC-3 cells used for cDNA microarray experiments, with each gene-specific primer as follows;
(§2) All experiments were performed in duplicate. The calculated quantity of the target gene for each sample was then divided by the average calculated quantity of beta 2-microglobulin (beta 2-MG) corresponding to each sample to give a relative expression of the target gene for each sample

DLG1 = test: Quantitative RT-PCR of downstream gene DLG1 in UM-UC-3 cells; format: cell-based, human; conditions: UM-UC-3 cells transfected with siRNA, compared with siEGFP
Experimental: as §1
Total RNAs were extracted from each sample at 12 hours and 24 hours after the transfection, labeled with Cy5 (for si-DEPDC1- and si-ZNF224-2-transfected cells) or Cy3 (for si-EGFP-transfected cells), and subjected to cohybridization onto cDNA microarrayslides containing 36468 cDNA or ESTs as described previously (Takata R, et al., Clin Cancer Res 2005 11:2625-36). After normalization of the data, it was excluded genes from further analysis when Cy5 and Cy3 dyes yielded signals intensities lower than the cut-off value. For other genes, the Cy5/Cy3 ratio was calculated using the raw data of each samples. […] Validation of candidate downstream genes of both DEPDC1 and ZNF224 was carried out with quantitative RT-PCR analysis using the SYBR green dye (Rhoche) and the same amplified RNAs from UM-UC-3 cells used for cDNA microarray experiments, with each gene-specific primer as follows;
as §2

UM-UC-3 cells [1] = test: MTT and colony-formation assays of UM-UC-3 cells transfected with siRNA expression vectors; format: cell-based, human; conditions: UM-UC-3 cells transfected with siRNA expression vector, neomycin selection
Excerpt: si-ZNF224#2: 5′-CCGCAGGAACACATCAAGA-3′ (SEQ ID NO: 10) for the ZNF224-specific sequence. DNA sequences of all constructs were confirmed by DNA sequencing. Eight-micrograms each of siRNA-expression vector were transfected into UM-UC-3 cells (1×10^6 cells per 10 cm-dish), respectively, using FuGENE6 transfection reagent (Roche) according to the supplier's recommendations. To evaluate the knockdown effect of siRNAs by semi-quantitative RT-PCR with specific primers (see below), total RNAs were extracted from the transfected cells after 4-day incubation with neomycin (Geneticin, Invitrogen). The specific primer sets for RT-PCR are as follows; 5′-[…]-3′ (SEQ ID NO: 11) and 5′-[…]-3′ (SEQ ID NO: 12) for ZNF224;
(§3) 5′-[…]-3′ (SEQ ID NO: 13) and 5′-[…]-3′ (SEQ ID NO: 14) for GAPDH as a quantitative control. The transfected UM-UC-3 cells were cultured for 21 or 14 days in the presence of 1.0 mg/ml of neomycin, and the number of colonies were counted by Giemsa staining. Viability of UM-UC-3 cells was evaluated by 3-(4,5-dimethylthiazol-2-yl)-2,5-diphenyltetrazolium bromide (MTT) assay at 14 days after the treatment of neomycin with cell counting kit-8 according to manufacturer's recommendation (Wako, Osaka, Japan). Absorbance at 570 nm wavelength was measured with a Microplate Reader 550 (Bio-Rad, Hercules, Calif.). These experiments were performed in triplicate.

ZNF224 transcript = test: Semiquantitative RT-PCR of knockdown effect of ZNF224 siRNA expression vectors in UM-UC-3 cells; format: cell-based, human; conditions: compared with si-EGFP control
Experimental: It has been previously established a vector-based RNA interference (RNAi) system, psiU6BX3.0 that was designed to express small interfering RNAs (siRNA) in mammalian cells (Shimokawa T, et al., Cancer Res 2003 63:6116-20). Plasmids designed to express siRNA to ZNF224 were prepared by cloning of double-stranded oligonucleotides into the BbsI site of psiU6BX vectors. The target sequences of the synthetic oligonucleotides for RNAi were as follows:
si-ZNF224#2: 5′-CCGCAGGAACACATCAAGA-3′ (SEQ ID NO: 10) for the ZNF224-specific sequence. DNA sequences of all constructs were confirmed by DNA sequencing. […] To evaluate the knockdown effect of siRNAs by semi-quantitative RT-PCR with specific primers (see below), total RNAs were extracted from the transfected cells after 4-day incubation with neomycin (Geneticin, Invitrogen). […]
as §3, with “Absorbance at 570 nm wavelength was measured with a Microplate Reader 550 (Bio-Rad, Hercules, Calif.). These experiments were performed in triplicate.” left out

NHDF-Ad cells = test: MTT assay of cell viability of normal human dermal fibroblasts treated with peptide; format: cell-based; conditions: DEPDC1 and ZNF224 hardly detectable
Experimental: (§4) UM-UC-3 and normal human dermal fibroblast-derived NHDF-Ad cell lines were incubated with the 11R peptides at the concentration of 0, 1, 2, or 3 micromol/L for 5 days. Each peptide was added at every 24 hours at the appropriate concentrations and the viability of cells was evaluated by MTT assay at every day after the treatment.
(§5) To examine the effect of DEPDC1611-628 peptide on cell growth of UM-UC-3 and NHDF cells, the cells were incubated with the DEPDC1611-628 or scramble peptides at the concentration of 0, 1, 2, or 3 micro M for 5 days, respectively. Each peptide was added at every 24 hours at the appropriate concentrations and the viability of cells was evaluated by MTT assay every day. Absorbance at 570 nm wavelength was measured with a Microplate Reader 550 (Bio-Rad). These experiments were performed in triplicate.

DEPDC1-ZNF224 complex = biological target: T1, DEPDC1-ZNF224 complex (Homo sapiens, UniProt Q9NZL3, H562R/M118V); test: Immunoprecipitation of exogenous DEPDC1-HA and ZNF224-FLAG complex in peptide-treated COS7 cells; format: cell-based
T1 construct: expressed in transfected cells; host or cells: COS7 cells, transiently co-transfected (pCAGGS-type vectors)
T1 sequence (Q9NZL3 whole entry M118V/H562R, one chain of several): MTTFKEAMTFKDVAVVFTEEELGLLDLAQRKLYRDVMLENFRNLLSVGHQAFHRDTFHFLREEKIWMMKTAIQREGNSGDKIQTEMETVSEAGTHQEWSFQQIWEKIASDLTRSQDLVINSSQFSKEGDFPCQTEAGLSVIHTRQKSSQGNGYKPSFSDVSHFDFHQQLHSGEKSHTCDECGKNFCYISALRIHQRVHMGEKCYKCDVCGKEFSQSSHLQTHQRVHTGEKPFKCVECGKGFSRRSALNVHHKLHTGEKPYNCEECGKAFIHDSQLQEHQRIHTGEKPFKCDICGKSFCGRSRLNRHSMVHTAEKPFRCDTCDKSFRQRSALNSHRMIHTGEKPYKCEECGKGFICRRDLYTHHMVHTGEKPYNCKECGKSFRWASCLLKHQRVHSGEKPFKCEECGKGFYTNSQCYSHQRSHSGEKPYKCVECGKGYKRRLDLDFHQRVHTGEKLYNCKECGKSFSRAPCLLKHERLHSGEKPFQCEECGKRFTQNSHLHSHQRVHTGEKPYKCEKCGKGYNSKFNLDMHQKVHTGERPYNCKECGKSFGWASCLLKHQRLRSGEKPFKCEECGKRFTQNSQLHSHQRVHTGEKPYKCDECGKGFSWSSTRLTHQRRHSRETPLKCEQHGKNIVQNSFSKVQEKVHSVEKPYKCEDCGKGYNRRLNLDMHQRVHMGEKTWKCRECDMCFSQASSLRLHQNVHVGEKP
Experimental: To confirm the interaction between DEPDC1 and ZNF224 in bladder cancer cells and identify the ZNF224-binding region in DEPDC1, the immunoprecipitation experiment was carried out as follows. First, it was confirmed interaction between endogenous DEPDC1 and exogenous ZNF224 by immunoprecipitation experiments using anti-DEPDC1 polyclonal antibody for immunoprecipitation and anti-FLAGM2 antibody (Amersham) for immunoblotting. To further determine the ZNF224-binding region in DEPDC1, it was cloned six partial constructs of DEPDC1 (DEPDC11-147, DEPDC1141-300, DEPDC1177-597, DEPDC1300-669, DEPDC1587-740 and DEPDC1654-811) into appropriate sites of COOH-terminal HA-tagged pCAGGS vector. The nucleotide sequence of each clones were determined with an ABI Prism 3700 DNA sequencer (Applied Biosystems, Foster City, Calif.), using each primer. Cell extracts from Cos7 cell line, transfected with each of plasmids expressing one of these six partial segments of DEPDC1, were precleared by incubation at 4 degrees C. for 1 hour with 100 micro 1 of protein G-agarose beads in final volumes of 2 mL of immunoprecipitation buffer (0.5% NP40, 50 mmol/L Tris-HCl, 150 mmol/L NaCl) in the presence of proteinase inhibitor. After centrifugation at 1,000 rpm for 5 minutes at 4 degrees C., the supernatants were incubated at 4 degrees C. with anti-HA rat for 1 hours. After the beads were collected from each sample by centrifugation at 5,000 rpm for 2 minutes and washed six times with 1 mL of immunoprecipitation buffer, the washed beads were re-suspended in 50 uL of Laemmli sample buffer and boiled for 3 minutes before the proteins were separated on 10% SDS-PAGE gels. Immunoblot was done using anti-HA rat antibody and anti-FLAGM2 monoclonal antibody, respectively (Sigma-Aldrich Co., St. Louis, Mo.).
To examine the effect of these polyarginine (11R)-linked peptides on inhibition of the DEPDC1-ZNF224 complex formation, they were co-transfected with DEPDC1 and ZNF224 constructs into COS7 cells. […] Immunoprecipitation were performed according to methods as described in “Identification of the ZNF224-binding regions in DEPDC1 protein” section.

UM-UC-3 cells [2] = test: MTT assay of cell viability of UM-UC-3 bladder cancer cells treated with 11R peptides; format: cell-based, human; conditions: UM-UC-3 cells; peptide 1, 2 or 3 micro M added every 24 hours for 5 days
Experimental: as §4, §5

Row | Compound | A20 transcript (quantitative RT-PCR) (A20 (TNFAIP3)) | DLG1 transcript (quantitative RT-PCR) (DLG1) | growth of UM-UC-3 cell (MTT and colony-formation assays) (UM-UC-3 cells [1]) | amount of ZNF224 transcript (knockdown effect) (ZNF224 transcript) | other results
1 | 5′-CCAAAGUUCCGUAGUCUAA-3′ [si-DEPDC1] | time-dependent increase | time-dependent increase |  |  | 
2 | 5′-CCGATTTGGATGATGAAGA-3′ [si-ZNF224-1] |  |  | marked suppression growth | significantly suppressed | 
3 | 5′-CCGCAGGAACACATCAAGA-3′ [si-ZNF224-2] | time-dependent increase | time-dependent increase | marked suppression growth | significantly suppressed | 
4 | CC[C@H](C)[C@H](NC(=O)[C@H](CCSC)NC(=O)[C@H](CCCNC(=N)N)NC(=O)[C@H](CCSC)NC(=O)[C@H](CC(C)C)NC(=O)[C@H](CC(C)C)NC(=O)[C@H](CCC(N)=O)NC(=O)[C@H](CC(C)C)NC(=O)[C@H](CCCCN)NC(=O)[C@H](CCCNC(=N)N)NC(=O)[C@H](CCCNC(=N)N)NC(=O)[C@H](CC(N)=O)NC(=O)[C@@H]1CCCN1C(=O)[C@@H]1CCCN1C(=O)CNC(=O)CNC(=O)CNC(=O)[C@H](CCCNC(=N)N)NC(=O)[C@H](CCCNC(=N)N)NC(=O)[C@H](CCCNC(=N)N)NC(=O)[C@H](CCCNC(=N)N)NC(=O)[C@H](CCCNC(=N)N)NC(=O)[C@H](CCCNC(=N)N)NC(=O)[C@H](CCCNC(=N)N)NC(=O)[C@H](CCCNC(=N)N)NC(=O)[C@H](CCCNC(=N)N)NC(=O)[C@H](CCCNC(=N)N)NC(=O)[C@@H](N)CCCNC(=N)N)C(=O)N[C@@H](CO)C(=O)N[C@@H](CCCNC(=N)N)C(=O)N[C@@H](CCSC)C(=O)N[C@@H](CO)C(=O)O [11R-DEP611-628, RRRRRRRRRRR-GGG-PPNRRKLQLLMRMISRMS] (H-RRRRRRRRRRRGGGPPNRRKLQLLMRMISRMS-OH) |  |  |  |  | cell viability measured by MTT assay (NHDF-Ad cells): no significant effect on cell viability; cell viability measured by MTT assay (NHDF-Ad cells; listed as DEPDC1611-628): no off-target effect
5 | RRRRRRRRRRR-GGG-AIDALQLCCLLLPPPNRR (RRRRRRRRRRRGGGAIDALQLCCLLLPPPNRR; An artificially synthesised dominant negative peptide) [11R-DEP598-615, 11R-linked DEPDC1 codons 598-615 peptide] |  |  |  |  | complex formation of DEPDC1-HA and ZNF224-FLAG (immunoprecipitation) (DEPDC1-ZNF224 complex; four peptides at 3 micro M added 6 hours after transfection, twenty-four hours later): moderate effect; complex formation between exogenously expressed DEPDC1-HA and ZNF224-Flag (immunoprecipitation) (DEPDC1-ZNF224 complex; six peptides added 6 hours after transfection, immunoprecipitation fifteen hours later): slight inhibition; cell viability measured by MTT assay (UM-UC-3 cells [2]): moderate suppress in cell viability in dose-dependent manner
